Test results taken from patent US7138361B2, “Herbicidal heterocycles” (E. I. du Pont de Nemours and Company, priority 2000, dated 2006).

Assays:
Assay type in all cases: in vivo
[1] = test system: Nightshade; test: Test C preemergence; conditions: scale 0 to 100, 0 no effect, 100 complete control
Description: (§1) Seeds of plant species selected from bermudagrass (Cynodon dactylon), Surinam grass (Brachiaria decumbens), cocklebur (Xanthium strumarium), corn (Zea mays), crabgrass (Digitaria sanguinalis), woolly cupgrass (Eriochloa villosa), giant foxtail (Setaria faberii), goosegrass (Eleusine indica), johnsongrass (Sorghum halepense), kochia (Kochia scoparia), lambsquarters (Chenopodium album), morningglory (Ipomoea hederacea), yellow nutsedge (Cyperus esculentus), pigweed (Amaranthus retroflexus), common ragweed (Ambrosia elatior), soybean (Glycine max) and velvetleaf (Abutilon theophrasti) were planted and treated preemergence with test chemicals formulated in a non-phytotoxic solvent mixture which included a surfactant.
(§2) At the same time, plants selected from these crop and weed species and also winter barley (Hordeum vulgare), blackgrass (Alopecurus myosuroides), canary grass (Phalaris minor), chickweed (Stellaria media), downy brome (Bromus tectorum), green foxtail (Setaria viridis), Italian ryegrass (Lolium multiflorum), wheat (Triticum aestivum), wild oat (Avena fatua) and windgrass (Apera spica-venti) were treated with postemergence applications of some of the test chemicals formulated in the same manner. Plants ranged in height from 2 to 18 cm (1- to 4-leaf stage) for postemergence treatments. Plant species in the flooded paddy test consisted of rice (Oryza saliva), smallflower flatsedge (Cyperus difformis), duck salad (Heteranthera limosa) and barnyardgrass (Echinochloa crus-galli) grown to the 2-leaf stage for testing. Treated plants and controls were maintained in a greenhouse for 12 to 14 days, after which time all species were compared to controls and visually evaluated. Plant response ratings, summarized in Table C, are based on a scale of 0 to 100 where 0 is no effect and 100 is complete control. A dash (-) response means no test result.

[2] = test system: Surinam grass (Brachiaria decumbens); test: Test C preemergence; conditions: for Plant response rating, Surinam grass: scale 0 to 100, 0 no effect, 100 complete control; for Plant response rating (0 to 100), Surinam grass: visual evaluation after 12 to 14 days
Description: as §1, §2

[3] = test system: bermudagrass (Cynodon dactylon); test: Test C preemergence; conditions: for Plant response rating, Bermudagrass: scale 0 to 100, 0 no effect, 100 complete control; for Plant response rating (0 to 100 where 0 is no effect and 100 is complete control), Bermudagrass: visual evaluation after 12 to 14 days
Description: as §1, §2

[4] = test system: cocklebur (Xanthium strumarium); test: Test C preemergence; conditions: for Plant response rating, Cocklebur: scale 0 to 100, 0 no effect, 100 complete control; for Plant response rating (0 to 100), Cocklebur: visual evaluation after 12 to 14 days
Description: as §1, §2

[5] = test system: corn (Zea mays); test: Test C preemergence; conditions: for Plant response rating, Corn: scale 0 to 100, 0 no effect, 100 complete control; for Plant response rating (0 to 100), Corn: visual evaluation after 12 to 14 days
Description: as §1, §2

[6] = test system: crabgrass (Digitaria sanguinalis); test: Test C preemergence; conditions: for Plant response rating, Crabgrass: scale 0 to 100, 0 no effect, 100 complete control; for Plant response rating (0 to 100), Crabgrass: visual evaluation after 12 to 14 days
Description: as §1, §2

[7] = test system: giant foxtail (Setaria faberii); test: Test C preemergence; conditions: for Plant response rating, Foxtail, Giant: scale 0 to 100, 0 no effect, 100 complete control; for Plant response rating (0 to 100), Foxtail, Giant: visual evaluation after 12 to 14 days
Description: as §1, §2

[8] = test system: goosegrass (Eleusine indica); test: Test C preemergence; conditions: for Plant response rating, Goosegrass: scale 0 to 100, 0 no effect, 100 complete control; for Plant response rating (0 to 100), Goosegrass: visual evaluation after 12 to 14 days
Description: as §1, §2

[9] = test system: johnsongrass (Sorghum halepense); test: Test C preemergence; conditions: for Plant response rating, Johnsongrass: scale 0 to 100, 0 no effect, 100 complete control; for Plant response rating (0 to 100), Johnsongrass: visual evaluation after 12 to 14 days
Description: as §1, §2

[10] = test system: kochia (Kochia scoparia); test: Test C preemergence; conditions: for Plant response rating, Kochia: scale 0 to 100, 0 no effect, 100 complete control; for Plant response rating (0 to 100), Kochia: visual evaluation after 12 to 14 days
Description: as §1, §2

[11] = test system: morningglory (Ipomoea hederacea); test: Test C preemergence; conditions: for Plant response rating, Morningglory: scale 0 to 100, 0 no effect, 100 complete control
Description: as §1, §2

[12] = test system: pigweed (Amaranthus retroflexus); test: Test C preemergence; conditions: preemergence; for Plant response rating, Pigweed: scale 0 to 100, 0 no effect, 100 complete control
Description: as §1, §2

[13] = test system: soybean (Glycine max); test: Test C preemergence; conditions: preemergence; for Plant response rating, Soybean: scale 0 to 100, 0 no effect, 100 complete control
Description: as §1, §2

[14] = test system: velvetleaf (Abutilon theophrasti); test: Test C preemergence; conditions: preemergence; for Plant response rating, Velvetleaf: scale 0 to 100, 0 no effect, 100 complete control
Description: as §1, §2

[15] = test system: woolly cupgrass (Eriochloa villosa); test: Test C preemergence; conditions: for Plant response rating, Cupgrass, Woolly: scale 0 to 100, 0 no effect, 100 complete control; for Plant response rating (0 to 100), Cupgrass, Woolly: visual evaluation after 12 to 14 days
Description: as §1, §2

[16] = test system: yellow nutsedge (Cyperus esculentus); test: Test C preemergence; conditions: for Plant response rating, Nutsedge: scale 0 to 100, 0 no effect, 100 complete control
Description: as §1, §2

[17] = test system: barnyardgrass (Echinochloa crus-galli); test: Test C flooded paddy test; conditions: for Barnyardgrass plant response rating: Flooded Paddy, scale 0 to 100, 0 no effect, 100 complete control; for Plant response rating, Barnyardgrass: flooded paddy test, scale 0 to 100 (0 no effect, 100 complete control)
Summary of the method: (§3)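 Plants were grown to the 2-leaf stage under flooded paddy conditions and treated. They were then kept in a greenhouse for 12 to 14 days and visually rated against untreated controls on a 0–100 scale, where 0 is no effect and 100 is complete control.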

[18] = test system: duck salad (Heteranthera limosa); test: Test C flooded paddy test; conditions: for Ducksalad plant response rating: Flooded Paddy, scale 0 to 100, 0 no effect, 100 complete control; for Plant response rating, Ducksalad: flooded paddy test, scale 0 to 100 (0 no effect, 100 complete control)
Summary of the method: as §3

[19] = test system: smallflower flatsedge (Cyperus difformis); test: Test C flooded paddy test; conditions: for Flatsedge plant response rating: Flooded Paddy, scale 0 to 100, 0 no effect, 100 complete control; for Plant response rating, Flatsedge: flooded paddy test, scale 0 to 100 (0 no effect, 100 complete control)
Summary of the method: as §3

[20] = test system: Sunflower; test: Test C preemergence; conditions: Rate 500 g/ha, visual evaluation after 12 to 14 days
[21] = preemergence, Rate 500 g/ha, visual evaluation after 12 to 14 days
[22] = Rate 500 g/ha, visual evaluation after 12 to 14 days

COc1cc(OC)cc(N2CCC(n3ccc(C(C)(C)C)n3)C2=O)c1 (stereo not shown) [Compound 71]
Plant response rating, Nightshade ([1]; Rate 62 g/ha): 0
Plant response rating, Nightshade ([1]; Rate 125 g/ha): 20
Plant response rating, Nightshade ([1]; Rate 250 g/ha): 30
Plant response rating, Surinam grass ([2]; Rate 62 g/ha): 30
Plant response rating (0 to 100), Surinam grass ([2]; preemergence, Rate 250 g/ha): 50
Plant response rating (0 to 100), Surinam grass ([2]; preemergence, Rate 500 g/ha): 90
Plant response rating, Surinam grass ([2]; preemergence, Rate 125 g/ha): 30
Plant response rating, Bermudagrass ([3]; Rate 62 g/ha): 30
Plant response rating (0 to 100 where 0 is no effect and 100 is complete control), Bermudagrass ([3]; preemergence, Rate 250 g/ha): 100
Plant response rating (0 to 100 where 0 is no effect and 100 is complete control), Bermudagrass ([3]; preemergence, Rate 500 g/ha): 100
Plant response rating, Bermudagrass ([3]; preemergence, Rate 125 g/ha): 90
Plant response rating, Cocklebur ([4]; Rate 62 g/ha): 0
Plant response rating (0 to 100), Cocklebur ([4]; preemergence, Rate 250 g/ha): 30
Plant response rating (0 to 100), Cocklebur ([4]; preemergence, Rate 500 g/ha): 30
Plant response rating, Cocklebur ([4]; preemergence, Rate 125 g/ha): 0
Plant response rating, Corn ([5]; Rate 62 g/ha): 0
Plant response rating (0 to 100), Corn ([5]; preemergence, Rate 250 g/ha): 0
Plant response rating (0 to 100), Corn ([5]; preemergence, Rate 500 g/ha): 30
Plant response rating, Corn ([5]; preemergence, Rate 125 g/ha): 0
Plant response rating, Crabgrass ([6]; Rate 62 g/ha): 40
Plant response rating (0 to 100), Crabgrass ([6]; preemergence, Rate 250 g/ha): 100
Plant response rating (0 to 100), Crabgrass ([6]; preemergence, Rate 500 g/ha): 100
Plant response rating, Crabgrass ([6]; preemergence, Rate 125 g/ha): 100
Plant response rating, Foxtail, Giant ([7]; Rate 62 g/ha): 0
Plant response rating (0 to 100), Foxtail, Giant ([7]; preemergence, Rate 250 g/ha): 0
Plant response rating (0 to 100), Foxtail, Giant ([7]; preemergence, Rate 500 g/ha): 100
Plant response rating, Foxtail, Giant ([7]; preemergence, Rate 125 g/ha): 90
Plant response rating, Goosegrass ([8]; Rate 62 g/ha): 30
Plant response rating (0 to 100), Goosegrass ([8]; preemergence, Rate 250 g/ha): 100
Plant response rating (0 to 100), Goosegrass ([8]; preemergence, Rate 500 g/ha): 100
Plant response rating, Goosegrass ([8]; preemergence, Rate 125 g/ha): 90
Plant response rating, Johnsongrass ([9]; Rate 62 g/ha): 0
Plant response rating (0 to 100), Johnsongrass ([9]; preemergence, Rate 250 g/ha): 0
Plant response rating (0 to 100), Johnsongrass ([9]; preemergence, Rate 500 g/ha): 40
Plant response rating, Johnsongrass ([9]; preemergence, Rate 125 g/ha): 0
Plant response rating, Kochia ([10]; Rate 62 g/ha): 80
Plant response rating (0 to 100), Kochia ([10]; preemergence, Rate 250 g/ha): 100
Plant response rating (0 to 100), Kochia ([10]; preemergence, Rate 500 g/ha): 100
Plant response rating, Kochia ([10]; preemergence, Rate 125 g/ha): 90
Plant response rating, Morningglory ([11]; Rate 62 g/ha): 0
Plant response rating (0 to 100), Morningglory [11, 21]: 0
Plant response rating, Morningglory ([11]; preemergence, Rate 125 g/ha): 0
Plant response rating, Morningglory ([11]; preemergence, Rate 250 g/ha): 0
Plant response rating (0 to 100), Pigweed [12, 22]: 100
Plant response rating, Pigweed ([12]; Rate 125 g/ha): 0
Plant response rating, Pigweed ([12]; Rate 250 g/ha): 100
Plant response rating (0 to 100), Soybean [13, 22]: 0
Plant response rating, Soybean ([13]; Rate 125 g/ha): 0
Plant response rating, Soybean ([13]; Rate 250 g/ha): 0
Plant response rating (0 to 100), Velvetleaf [14, 22]: 0
Plant response rating, Velvetleaf ([14]; Rate 125 g/ha): 0
Plant response rating, Velvetleaf ([14]; Rate 250 g/ha): 0
Plant response rating, Cupgrass, Woolly ([15]; Rate 62 g/ha): 0
Plant response rating (0 to 100), Cupgrass, Woolly ([15]; preemergence, Rate 250 g/ha): 100
Plant response rating (0 to 100), Cupgrass, Woolly ([15]; preemergence, Rate 500 g/ha): 100
Plant response rating, Cupgrass, Woolly ([15]; preemergence, Rate 125 g/ha): 80
Plant response rating, Nutsedge ([16]; Rate 62 g/ha): 0
Plant response rating (0 to 100), Nutsedge [16, 21]: 70
Plant response rating, Nutsedge ([16]; preemergence, Rate 125 g/ha): 30
Plant response rating, Nutsedge ([16]; preemergence, Rate 250 g/ha): 70
Barnyardgrass plant response rating ([17]; Rate 250 g/ha): 0
Barnyardgrass plant response rating ([17]; Rate 500 g/ha): 80
Plant response rating, Barnyardgrass ([17]; Rate 62 g/ha): 0
Plant response rating, Barnyardgrass ([17]; Rate 125 g/ha): 0
Ducksalad plant response rating ([18]; Rate 250 g/ha): 30
Ducksalad plant response rating ([18]; Rate 500 g/ha): 30
Plant response rating, Ducksalad ([18]; Rate 62 g/ha): 0
Plant response rating, Ducksalad ([18]; Rate 125 g/ha): 20
Flatsedge plant response rating ([19]; Rate 250 g/ha): 100
Flatsedge plant response rating ([19]; Rate 500 g/ha): 100
Plant response rating, Flatsedge ([19]; Rate 62 g/ha): 80
Plant response rating, Flatsedge ([19]; Rate 125 g/ha): 100
Plant response rating (0 to 100), Sunflower [20]: 20
